Values after ≈ are worked out from the molar mass of the structure shown. Blank lines part the entries; values can stand above or below the compound they belong to.
How the values were obtained:
Format in all cases: functional
Candida albicans [1] = test: Antifungal activity against Candida albicans ATCC 10231 assessed as growth inhibition measured after 48 hrs by CLSI based method
Nakaseomyces glabratus = test: Antifungal activity against Candida glabrata assessed as reduction in fungal growth; parameters: concentration or dose not given beside the values
Microsporum canis = test: Antifungal activity against Microsporum canis assessed as inhibition of fungal growth; parameters: scale not given: the % may be the effect or the level left
Candida albicans [2] = test: Antifungal activity against fluconazole-resistant Candida albicans MFBF 11100 assessed as inhibition of fungal growth incubated for 48 hrs by liquid medium dilution method
Candida albicans [3] = test: Antifungal activity against fluconazole-resistant Candida albicans ATCC 10213 assessed as inhibition of fungal growth incubated for 48 hrs by liquid medium dilution method
Epidermophyton floccosum = test: Antifungal activity against Epidermophyton floccosum
Trichophyton violaceum = test: Antifungal activity against Trichophyton violaceum
Cryptococcus neoformans [4] = test: Antifungal activity against Cryptococcus neoformans ATCC 34877 assessed as reduction in fungal growth incubated for 72 hrs by liquid based microdilution method
[5] = Antifungal activity against Cryptococcus gattii VGI ATCC LMM 818 assessed as reduction in fungal growth incubated for 72 hrs by liquid based microdilution method
Cryptococcus neoformans [6] = test: Antifungal activity against Cryptococcus neoformans ATCC 34877 assessed as reduction in fungal growth incubated for 48 hrs by liquid based microdilution method
Aspergillus flavus [7] = test: Antifungal activity against Aspergillus flavus assessed as reduction in fungal growth incubated for 24 hrs by two-fold serial dilution method; parameters: scale not given: the % may be the effect or the level left
Candida albicans [8] = test: Antifungal activity against Candida albicans assessed as fungal growth inhibition
Aspergillus flavus [9] = test: Antifungal activity against Aspergillus flavus assessed as fungal growth inhibition
Candida albicans [10] = test: Antifungal activity against Candida albicans ATCC 2091 assessed as reduction in fungal growth
Aspergillus flavus [11] = test: Antifungal activity against Aspergillus flavus ATCC 16870 assessed as inhibition of growth incubated for 48 hrs by two-fold serial dilution method
Aspergillus flavus [12] = test: Antifungal activity against Aspergillus flavus
Candida albicans [13] = test: Antifungal activity against Candida albicans SC5314 assessed as reduction in fungal growth incubated for 72 hrs by broth micro-dilution method
Candida albicans [14] = test: Antifungal activity against Candida albicans
Cryptococcus neoformans [15] = test: Antifungal activity against Cryptococcus neoformans H99 assessed as reduction in fungal growth incubated for 48 hrs by liquid based microdilution method
[16] = Antifungal activity against Cryptococcus gattii VGI ATCC 14116 assessed as reduction in fungal growth incubated for 72 hrs by liquid based microdilution method
Candida tropicalis [17] = test: Antifungal activity against Candida tropicalis ATCC 1369 assessed as inhibition of fungal growth by CLSI protocol based microdilution method
Candida tropicalis [18] = test: Anti-fungal activity against Candida tropicalis assessed as inhibition of fungal growth
Candida albicans [19] = test: Antifungal activity against Candida albicans assessed as reduction in microbial growth
Candida albicans [20] = test: Antifungal activity against Candida albicans assessed as fungal growth inhibition at 5 ug/ml incubated for 24 hrs by CLSI protocol based microbroth dilution assay relative to control; parameters: scale not given: the % may be the effect or the level left; conditions: dose 5 µg/ml
[21] = test system: Trichophyton interdigitale; test: Antifungal activity against Trichophyton interdigitale
[22] = test system: Trichophyton mentagrophytes; test: Antifungal activity against Trichophyton mentagrophytes
Trichophyton tonsurans = test: Antifungal activity against Trichophyton tonsurans
Trichophyton rubrum = test: Antifungal activity against Trichophyton rubrum assessed as fungal growth inhibition incubated for 48 hrs by microplate reader assay
Candida albicans [23] = test: Antifungal activity against Candida albicans ATCC 10231 assessed as fungal growth inhibition incubated for 24 hrs by CLSI protocol based microbroth dilution assay

SMILES: NS(=O)(=O)c1ccc(/N=C/c2cc(Cl)ccc2O)cc1
Activity (Nakaseomyces glabratus): 47%

SMILES: CCCN(CCC)C(=S)NC(=O)c1ccc(C)s1
Activity (Microsporum canis): 63%

SMILES: COc1ccc(/C=N/NC(=O)c2cccnc2)c(O)c1
IC90 (Candida albicans [2]): 100 nM
IC90 (Candida albicans [3]): 180 nM

SMILES: CCCN(CCC)C(=S)NC(=O)c1ccc(Br)o1
Activity (Aspergillus flavus [7]): 52%
Activity (Nakaseomyces glabratus): 42%

SMILES: CCN(C(=S)NC(=O)c1ccc(Br)o1)C(C)C
Activity (Aspergillus flavus [7]): 50%

SMILES: CCN(C(=S)NC(=O)c1ccc(C)s1)C(C)C
Activity (Aspergillus flavus [7]): 57%
Activity (Nakaseomyces glabratus): 62%

SMILES: Cc1ccc(S(=O)(=O)Nc2ncccn2)cc1
Activity (Nakaseomyces glabratus): 53%

SMILES: O=C(O)c1cc(F)c(F)c(F)c1O
MIC (Candida albicans [19]): 50 µg/mL

SMILES: CNCCC/N=C/c1c(O)ccc2c(C)cc(=O)oc12
MIC (Candida albicans [10]): 12.5 µg/mL (≈ 45.6 µM)

SMILES: CCN(C(=S)NC(=O)c1cccs1)C(C)C
Activity (Nakaseomyces glabratus): 43%
Activity (Candida albicans [20]): 53%

SMILES: O=C(O)c1c(O)c(F)c(F)c(F)c1F
MIC [21]: 25 µg/mL (≈ 119 µM)
MIC [22]: 25 µg/mL (≈ 119 µM)
MIC (Trichophyton tonsurans): 25 µg/mL (≈ 119 µM)
MIC (Trichophyton rubrum): 25 µg/mL (≈ 119 µM)

SMILES: CCCN(CCC)C(=S)NC(=O)c1cccs1
Activity (Candida albicans [20]): 50%

Next, values leading:

MIC (Candida albicans [1]): 10.7 µM (≈ 3.37 µg/mL)
SMILES: C/C(=N\NC(=S)Nc1ccc([N+](=O)[O-])cc1)c1ccccn1

MIC (Epidermophyton floccosum): 26.9 µM (≈ 6.25 µg/mL)
MIC (Trichophyton violaceum): 26.9 µM (≈ 6.25 µg/mL)
SMILES: c1ccc(-c2ccc(-c3ccccn3)nc2)cc1

MIC90 (Cryptococcus neoformans [4]): 52 µM (≈ 10.9 µg/mL)
MIC90 [5]: 52 µM (≈ 10.9 µg/mL)
MIC90 (Cryptococcus neoformans [6]): 2.01 µM (≈ 0.42 µg/mL)
SMILES: CNC(=S)N/N=C(\N)c1ccccn1

MIC (Candida albicans [8]): 233 µM (≈ 53.4 µg/mL)
MIC (Aspergillus flavus [9]): 226 µM (≈ 51.7 µg/mL)
SMILES: O=c1cc(O)c2c(=O)[nH]c3ccccc3c2o1

MIC (Candida albicans [10]): 12.5 µg/mL (≈ 42.2 µM)
SMILES: O=C1N[C@@H](Cc2ccc(/N=C/c3ccccc3O)cc2)CO1

MIC (Candida albicans [10]): 12.5 µg/mL (≈ 44.9 µM)
SMILES: Oc1ccccc1/C=N/c1ccc(Cn2cncn2)cc1

MIC (Aspergillus flavus [11]): 6.25 µg/mL (≈ 23.6 µM)
MIC (Aspergillus flavus [12]): 6.25 µg/mL (≈ 23.6 µM)
MIC (Candida albicans [13]): 6.25 µg/mL (≈ 23.6 µM)
MIC (Candida albicans [14]): 50 µg/mL (≈ 189 µM)
SMILES: Oc1ccccc1/N=N/c1ccc(O)c2ccccc12

MIC90 (Cryptococcus neoformans [15]): 13.1 µM (≈ 2.55 µg/mL)
MIC90 (Cryptococcus neoformans [4]): 26.3 µM (≈ 5.13 µg/mL)
MIC90 [16]: 26.3 µM (≈ 5.13 µg/mL)
MIC90 [5]: 52.5 µM (≈ 10.3 µg/mL)
SMILES: NC(=S)N/N=C(\N)c1ccccn1

MIC (Candida tropicalis [17]): ≤ 20.4 µM
MIC (Candida tropicalis [18]): ≤ 12.7 µM
SMILES: Cc1ccc(-c2ccc(-c3ccccn3)nc2)cc1

MIC90 (Cryptococcus neoformans [15]): 13.1 µM (≈ 2.92 µg/mL)
SMILES: CCNC(=S)N/N=C(\N)c1ccccn1

MIC (Candida albicans [23]): 6.2 µM (≈ 2.46 µg/mL)
MIC (Candida albicans [1]): 10.7 µM (≈ 4.24 µg/mL)
SMILES: C/C(=N\NC(=S)Nc1ccc(I)cc1)c1ccccn1

Reference: ChEMBL document CHEMBL6153171, “Redefining Antifungal Treatment: The Innovation of Metal-Based Compounds” (2025)
